Each structure is given as a SMILES string. Inconclusive results are not listed.

The test deals with INS-1E rat beta cells, cytokine apoptosis rescue, ATP luminescence 48 h. As to the kind of experiment: beta cell apoptosis inhibitors, cytokine rescue, dose response, luminescence, retest (AID 449756).
As a reminder, the AC50 is the concentration at which the activity in the assay is half-maximal. Consider `C#CCOCCOCCOCCNc1nc(N2CCN(C(=O)CCCCCCCCCCNC(=O)[C@H]([C@@H](C)CC)n3cc(CCCCN=C(N)N)nn3)CC2)nc(N2CCN(C(=O)CCCCCCCCCCNC(=O)[C@H](CCCCN)n3cc(C)nn3)CC2)n1`, for which the AC50 is 4.96 µM.
For `C#CCOCCOCCOCCNc1nc(N2CCN(C(=O)CCCCCCCCCCNC(=O)[C@@H](CCSC)n3cc(CCO)nn3)CC2)nc(N2CCN(C(=O)CCCCCCCCCCNC(=O)[C@H]([C@@H](C)CC)n3cc(CCCCCN)nn3)CC2)n1`, the concentration at half-maximal activity (AC50) is 3.98 µM.
On to `C#CCOCCOCCOCCNc1nc(N2CCN(C(=O)CCCCCCCCCCNC(=O)[C@H]([C@@H](C)CC)n3cc(CCCCCN)nn3)CC2)nc(N2CCN(C(=O)CCCCCCCCCCNC(=O)[C@H]([C@@H](C)CC)n3cc(CCCCN=C(N)N)nn3)CC2)n1`, for which the half-maximal activity concentration (AC50) was 4.66 µM.
As for `C=C(C=O)C[C@@H]1C[C@H](O)C2OC3C[C@]4(C)OC5/C=C\CC6OC7C(CC=CCC6OC5CCCC4OC3CC2O1)OC1CC2OC3CC(=O)OC3C[C@@H](C)C[C@@]2(C)OC1C[C@@H]7C` (stereo not given in full), the AC50 is 2.17 µM.
Take `C#CCOCCOCCOCCNc1nc(N2CCN(C(=O)CCCCCCCCCCNC(=O)[C@H](CCCCN)n3cc(C)nn3)CC2)nc(N2CCN(C(=O)CCCCCCCCCCNC(=O)[C@@H]([C@H](C)CC)n3cc(CCCCCN)nn3)CC2)n1`: the AC50 is 5.59 µM.
In the case of `C#CCOCCOCCOCCNc1nc(N2CCN(C(=O)CCCCCCCCCCNC(=O)Cn3cc(CCCCCN)nn3)CC2)nc(N2CCN(C(=O)CCCCCCCCCCNC(=O)[C@H]([C@@H](C)CC)n3cc(CCCCN=C(N)N)nn3)CC2)n1`, the AC50 was 6.89 µM.
In the case of `C#CCOCCOCCOCCNc1nc(N2CCN(C(=O)CCCCCCCCCCNC(=O)[C@H](CCCCN)n3cc(CCO)nn3)CC2)nc(N2CCN(C(=O)CCCCCCCCCCNC(=O)[C@H](CCCCN)n3cc(C[C@@H](C)CC)nn3)CC2)n1`, the AC50 was 6.27 µM.
As to `C#CCOCCOCCOCCNc1nc(N2CCN(C(=O)CCCCCCCCCCNC(=O)[C@H]([C@@H](C)CC)n3cc(CCCCN=C(N)N)nn3)CC2)nc(N2CCN(C(=O)CCCCCCCCCCNC(=O)[C@H](CO)n3cc(CCCCCN)nn3)CC2)n1`, the AC50 was 6.94 µM.
Turning to `C#CCOCCOCCOCCNc1nc(N2CCN(C(=O)CCCCCCCCCCNC(=O)[C@H]([C@@H](C)CC)n3cc(CCCCCN)nn3)CC2)nc(N2CCN(C(=O)CCCCCCCCCCNC(=O)[C@@H]([C@H](C)O)n3cc(C)nn3)CC2)n1`, the AC50 is 5.76 µM.
To `C#CCOCCOCCOCCNc1nc(N2CCN(C(=O)CCCCCCCCCCNC(=O)[C@H](CCCCN)n3cc(C)nn3)CC2)nc(N2CCN(C(=O)CCCCCCCCCCNC(=O)[C@H](CCCN=C(N)N)n3cc(C[C@@H](C)CC)nn3)CC2)n1` belongs 6.66 µM.

The values are drawn from PubChem BioAssay AID449756 (Broad Institute, 2010).
